# What was measured:
# Experiment in all cases: relative viability (nuclei count vs DMSO), 5 days (fraction); higher = more cells survive
# [1] = compound: CC(C)C[C@@H](C(=O)N[C@H](C(=O)OC1CCCC1)c1ccccc1)[C@H](O)C(=O)NO [Tosedostat] + COc1cccc2cc(-c3nc([C@H]4CC[C@H](C(=O)O)CC4)n4ncnc(N)c34)[nH]c12 [OSI-027] (partner 0.5 µM)
# Summary of the method: (§1)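 Each reported value is a median over duplicate plates. It expresses relative viability: treated-well nuclei count divided by vehicle-well nuclei count. Lung cancer cell lines in 1536-well plates were dosed by pin tool a day after seeding, alone with one drug or with a fixed anchor-drug dose plus five library-drug doses (not always all listed) in √10 steps, and nuclei were counted after 5 days.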
# [2] = compound: CC(C)C[C@@H](C(=O)N[C@H](C(=O)OC1CCCC1)c1ccccc1)[C@H](O)C(=O)NO [Tosedostat] + O=C(CCCCCCC(=O)Nc1ccccc1)NO [Vorinostat] (partner 1 µM)
# Summary of the method: as §1
# [3] = compound: CC1=NN=C(O1)C2=NN=C(C=C2)N3CCC(CC3)OC4=C(C=CC(=C4)F)Cl + CC1(C)CCC(c2ccc(Cl)cc2)=C(CN2CCN(c3ccc(C(=O)NS(=O)(=O)c4ccc(N[C@H](CCN5CCOCC5)CSc5ccccc5)c(S(=O)(=O)C(F)(F)F)c4)cc3)CC2)C1 [Navitoclax] (partner 0.5 µM)
# Summary of the method: as §1
# [4] = compound: CC1=NN=C(O1)C2=NN=C(C=C2)N3CCC(CC3)OC4=C(C=CC(=C4)F)Cl + C[C@]1(O)C[C@@H](c2nc(-c3ccc4ccc(-c5ccccc5)nc4c3)c3c(N)nccn32)C1 [Linsitinib] (partner 1 µM)
# Summary of the method: as §1
Cell Line,relative viability ([1]; first compound 0.02 µM),relative viability ([1]; first compound 0.06325 µM),relative viability ([1]; first compound 0.2 µM),relative viability ([1]; first compound 0.6325 µM),relative viability ([1]; first compound 2 µM),relative viability ([2]; first compound 0.02 µM),relative viability ([2]; first compound 0.06325 µM),relative viability ([2]; first compound 0.2 µM),relative viability ([2]; first compound 0.6325 µM),relative viability ([2]; first compound 2 µM),relative viability ([3]; first compound 0.253 µM),relative viability ([3]; first compound 0.8 µM),relative viability ([3]; first compound 2.53 µM),relative viability ([3]; first compound 8 µM),relative viability ([4]; first compound 0.253 µM),relative viability ([4]; first compound 0.8 µM),relative viability ([4]; first compound 2.53 µM),relative viability ([4]; first compound 8 µM)
LXF-289,0.904,0.799,0.808,0.692,0.561,0.818,0.716,0.822,0.703,0.771,0.714,0.7,0.673,0.618,0.724,0.712,0.688,0.603
NCI-H23,0.702,0.599,0.683,0.494,0.372,0.646,0.52,0.707,0.502,0.51,0.808,–,0.71,0.722,0.482,–,0.543,0.521
NCI-H322M,0.606,0.571,0.567,0.556,0.509,0.855,0.958,0.887,0.995,0.802,1.17,1.11,1.11,1,0.853,0.836,0.896,0.786
NCI-H441,0.609,0.593,0.632,0.433,0.437,0.809,0.654,0.759,0.55,0.547,0.536,0.654,0.544,0.472,0.571,0.419,0.473,0.396
NCI-H460,0.817,0.604,0.595,0.647,0.679,0.83,0.708,0.676,0.699,0.714,0.429,0.42,0.45,0.392,0.331,0.3,0.398,0.342
NCI-H520,0.215,0.285,–,0.335,0.22,0.737,0.77,0.59,0.839,0.761,0.926,0.566,1.05,1.09,0.929,0.793,0.93,0.755
NCI-H596,0.826,0.924,0.909,0.564,0.629,0.731,0.706,0.816,0.692,0.616,–,0.756,0.894,0.723,–,0.953,1.01,0.933
NCI-H647,0.541,0.667,0.515,0.4,0.585,0.842,0.502,0.566,0.503,0.686,0.744,0.704,0.821,0.679,0.759,0.805,0.616,0.582
NCI-H727,0.583,0.636,–,0.492,0.419,1.18,1.26,1.1,0.886,0.683,0.479,0.36,0.368,0.262,0.189,0.251,0.327,0.251
NCI-H838,0.383,0.413,0.445,0.503,0.404,0.772,0.732,0.808,0.833,0.87,0.959,0.954,1.05,0.979,0.919,0.872,0.93,0.856
NCI-H1355,0.377,0.399,0.442,0.413,0.351,0.654,0.631,0.705,0.543,0.604,–,–,0.947,0.763,–,–,0.806,0.66
NCI-H1395,0.59,0.618,0.644,0.672,0.621,0.773,0.77,0.743,0.742,0.595,1.17,0.859,1,1.13,0.931,0.943,1.09,1.06
NCI-H1437,0.977,0.969,0.846,0.828,0.805,1.04,0.754,0.976,1.12,0.958,0.571,0.66,0.564,0.46,0.552,0.644,0.689,0.487
NCI-H1651,0.747,0.801,0.62,0.708,0.598,0.564,0.609,0.548,0.556,0.472,0.809,0.783,0.782,0.717,0.857,0.873,0.807,0.801
NCI-H1666,0.839,0.856,0.822,0.835,0.845,1.06,1.16,1.06,1.04,1.05,0.706,0.667,0.723,0.698,0.589,0.725,0.791,0.656
NCI-H1734,0.593,0.669,0.64,0.571,0.564,0.949,0.757,0.886,0.612,0.514,0.826,0.682,0.843,0.754,0.863,0.783,0.814,0.601
NCI-H1755,0.743,0.731,0.642,0.674,0.463,0.912,0.795,0.732,0.768,0.637,0.615,0.682,0.676,0.655,0.661,0.754,0.728,0.683
NCI-H1793,0.264,0.271,0.293,0.258,0.24,0.683,0.72,0.714,0.665,0.684,0.45,0.397,0.371,0.282,0.725,0.735,0.952,0.822

# Reference: the supplement of paper PMC10307832
